The data set can be described thus: mn = molality of the nth substance listed, in mol/kg. Conditions: 298.15 K, 100 kPa, Liquid, Buoyancy - hydrostatic balance.

SMILES strings stand for the structures. Where “and” joins values, the source holds several entries; their conditions need not be identical. Equal values may be shown once. Numbers after ± are expanded uncertainties.

A word on the mass density: it is mass per unit of volume.

As for `[Na+].[OH-]` [sodium hydroxide] + O, the mass density is 1043 ± 14 kg/m3 and 1041 ± 14 kg/m3 (m1 = 1); 1081 ± 14 kg/m3 (m1 = 2).

On to `[Na+].[O-][Cl+3]([O-])([O-])[O-]` [sodium perchlorate] + O, for which the mass density by setting is: (m1 = 1.05) 1076 ± 14 kg/m3 and 1072 ± 15 kg/m3; (m1 = 1.62) 1110 ± 14 kg/m3; (m1 = 2.21) 1148 ± 14 kg/m3; (m1 = 2.22) 1145 ± 14 kg/m3; (m1 = 2.84) 1185 ± 16 kg/m3; (m1 = 2.86) 1180 ± 16 kg/m3. Besides, the mass density is, setting by setting: (m1 = 3.51) 1223 ± 14 kg/m3; (m1 = 6.68) 1360 ± 14 kg/m3.

The record behind these values is the NIST ThermoML archive (doi:10.1016/j.jct.2018.08.037).
